One assay concerns HCV replicon genotype 1a. In words: HCV replicon assay, genotype 1a (cell ELISA for replicon-encoded NS3/4A). The format is cell-based, hepatitis C virus (HCV). The procedure:
Measurement of inhibition by compounds was performed using the HCV replicon system. Several different replicons encoding different HCV genotypes or mutations were used. In addition, potency measurements were made using different formats of the replicon assay, including different ways of measurements and different plating formats. See Jan M. Vrolijk et al., A replicons-based bioassay for the measurement of interferons in patients with chronic hepatitis C, 110 J. V[…] 201 (2003); Steven S. Carroll et al., Inhibition of Hepatitis C Virus RNA Replication by 2′-Modified Nucleoside Analogs, 278(14) J. BIOLOGICAL CHEMISTRY 11979 (2003). However, the underlying principles are common to all of these determinations, and are outlined below.
(§1) Stable neomycin phosphotransferase encoding replicons-harboring cell lines were used, so all cell lines were maintained under G418 selection prior to the assay. Potency was determined using a cell ELISA assay with an antibody to the replicons encoded NS3/4a protease. See Caterina Trozzi et al., In Vitro Selection and Characterization of Hepatitis C Virus Serine Protease Variants Resistant to an Active-Site Peptide Inhibitor, 77(6) J. Virol. 3669 (2003). To initiate an assay, replicon cells were plated in the presence of a dilution series of test compound in the absence of G418. Typically, the assays were performed in a 96-well plate formate for manual operation, or a 384-well plate format for automated assay. Replicon cells and compound were incubated for 96 hours. At the end of the assay, cells were washed free of media and compound, and the cells were then lysed. RNA was quantified indirectly through detection of replicon-encoded NS3/4A protein levels, through an ELISA-based assay with an antibody specific for NS3/4A. IC50 determinations were calculated as a percentage of a DMSO control by fitting the data to a four-parameter fit function and the data obtained is provided in the table below.
(§2) Data for selected compounds of the present invention was obtained for genotypes 1a and 1b using this method and is provided in the table below: […]

The next assay concerns HCV replicon genotype 1b. In words: HCV replicon assay, genotype 1b (cell ELISA for replicon-encoded NS3/4A). In kind it is cell-based, hepatitis C virus (HCV). How it is done:
The HCV NS5B inhibitory activity of the present compounds may be tested using assays known in the art. The HCV NS5B polymerase inhibitors described herein have activities in a genotype 1b replicon assay as described in the Examples. The assay is performed by incubating a replicon harboring cell-line in the presence of inhibitor for a set period of time and measuring the effect of the inhibitor on HCV replicon replication either directly by quantifying replicon RNA level, or indirectly by measuring enzymatic activity of a co-encoded reporter enzyme such as luciferase or β-lactamase. By performing a series of such measurements at different inhibitor concentrations, the effective inhibitory concentration of the inhibitor (EC50 or EC90) is determined See Jan M. Vrolijk et al., A replicons-based bioassay for the measurement of interferons in patients with chronic hepatitis C, 110 J. VIROLOGICAL METHODS 201 (2003). Such assays may also be run in an automated format for high through-put screening. See Paul Zuck et al., A cell-based β-lactamase reporter gene assay for the identification of inhibitors of hepatitis C virus replication, 334 ANALYTICAL BIOCHEMISTRY 344 (2004).
Measurement of inhibition by compounds was performed using the HCV replicon system. Several different replicons encoding different HCV genotypes or mutations were used. In addition, potency measurements were made using different formats of the replicon assay, including different ways of measurements and different plating formats. See Jan M. Vrolijk et al., A replicons-based bioassay for the measurement of interferons in patients with chronic hepatitis C, 110 J. VIROLOGICAL METHODS 201 (2003); Steven S. Carroll et al., Inhibition of Hepatitis C Virus RNA Replication by 2′-Modified Nucleoside Analogs, 278(14) J. BIOLOGICAL CHEMISTRY 11979 (2003). However, the underlying principles are common to all of these determinations, and are outlined below.
as §1, §2
On the technique in general: In antiviral work, replicon cells carry a viral genome segment that copies itself.

Setting [1] is: Hepatitis C virus, 96 h, read-out: 1a IC50 (nM), genotype 1a replicon cells, 96 hours incubation, NS3/4A ELISA readout, % of DMSO control.
[2] abbreviates: Hepatitis C virus, 96 h, read-out: 1b IC50 (nM), genotype 1b replicon cells, 96 hours incubation, NS3/4A ELISA readout, % of DMSO control.

Like-named read-outs stand apart in the source and are kept apart here.

For `CNC(=O)c1c(-c2ccc(F)cc2)oc2cc(N(C)S(C)(=O)=O)c(-c3ccc4nc(C(C)N5CC(F)C5)n5c6cccc(F)c6cc5c4n3)cc12` (single isomer, unassigned) [Example 39, (R or S)-5-(11-fluoro-6-(1-(3-fluoroazetidin-1-yl)ethyl)pyrido[3′,2′:4,5]pyrimido[1,6-a]indol-2-yl)-2-(4-fluorophenyl)-N-methyl-6-(N-methylmethylsulfonamido)benzofuran-3-carboxamide], the IC50 in the assay on HCV replicon genotype 1a (setting [1]) stood at 6.37 nM; in the assay with HCV replicon genotype 1b (setting [2]) it was 6.08 nM.
Turning to `CNC(=O)c1c(-c2ccc(F)cc2)oc2cc(N(C)S(C)(=O)=O)c(-c3ccc4nc(C(C)N5CC(F)C5)n5c6cccc(F)c6cc5c4n3)cc12` (single isomer, unassigned) [Example 40, (S or R)-5-(11-fluoro-6-(1-(3-fluoroazetidin-1-yl)ethyl)pyrido[3′,2′:4,5]pyrimido[1,6-a]indol-2-yl)-2-(4-fluorophenyl)-N-methyl-6-(N-methylmethylsulfonamido)benzofuran-3-carboxamide], the IC50 turned out to be 3.91 nM with HCV replicon genotype 1a (read-out: 1a IC50, genotype 1a replicon cells, 96 hours incubation, NS3/4A ELISA readout, % of DMSO control) and 4.42 nM in the assay with HCV replicon genotype 1b (read-out: 1b IC50, genotype 1b replicon cells, 96 hours incubation, NS3/4A ELISA readout, % of DMSO control).
Take `CNC(=O)c1c(-c2ccc(F)cc2)oc2cc(N(C)S(C)(=O)=O)c(-c3ccc4nc(CCN5CC(F)C5)c5c([nH]c6cccc(F)c65)c4n3)cc12` [54′, 5-(7-fluoro-6-(2-(3-fluoroazetidin-1-yl)ethyl)-11H-indolo[3,2-c][1,5]naphthyridin-2-yl)-2-(4-fluorophenyl)-N-methyl-6-(N-methylmethylsulfonamido)benzofuran-3-carboxamide]: the IC50 in the assay on HCV replicon genotype 1a (setting [1]) amounted to 4.17 nM; in the assay with HCV replicon genotype 1b (setting [2]) it was 4.24 nM.
In the case of `CNC(=O)c1c(-c2ccc(C(F)(F)F)nc2)oc2cc(N(C)S(C)(=O)=O)c(-c3ccc4ncn5c6cccc(F)c6cc5c4n3)cc12` [Example 1, 5-(11-fluoropyrido[3′,2′:4,5]pyrimido[1,6-a]indol-2-yl)-N-methyl-6-(N-methylmethylsulfonamido)-2-(6-(trifluoromethyl)pyridin-3-yl)benzofuran-3-carboxamide], the results for the IC50 in the assay on HCV replicon genotype 1a (setting [1]) and in the assay on HCV replicon genotype 1b (setting [2]) were 6.56 nM and 4.01 nM, respectively.
As for `CNC(=O)c1c(-c2ccc(OC(F)F)nc2)oc2cc(N(C)S(C)(=O)=O)c(-c3ccc4ncn5c6cccc(F)c6cc5c4n3)cc12` [Example 2], the IC50 in the assay with HCV replicon genotype 1a (setting [1]) came out at 2.83 nM; in the assay on HCV replicon genotype 1b (setting [2]), 6.91 nM.
Take `CNC(=O)c1c(-c2ccc(C(F)F)nc2)oc2cc(N(C)S(C)(=O)=O)c(-c3ccc4ncn5c6cccc(F)c6cc5c4n3)cc12` [Example 3]: the IC50 in the assay with HCV replicon genotype 1a (setting [1]) was found to be 3.38 nM; in the assay with HCV replicon genotype 1b (setting [2]), 4.12 nM.
As to `CNC(=O)c1c(-c2ccc(C)nc2)oc2cc(N(C)S(C)(=O)=O)c(-c3ccc4ncn5c6cccc(F)c6cc5c4n3)cc12` [Example 5], the IC50 in the assay on HCV replicon genotype 1a (setting [1]) is 3.7 nM; in the assay with HCV replicon genotype 1b (setting [2]), 7.4 nM.
Taken in the same sequence, the figures for `CNC(=O)c1c(-c2ccc(F)cc2C)oc2cc(N(C)S(C)(=O)=O)c(-c3ccc4ncn5c6cccc(F)c6cc5c4n3)cc12` [Example 6] were 3.2 nM and 5.08 nM.
With `CNC(=O)c1c(-c2ccc(F)nc2)oc2cc(N(C)S(C)(=O)=O)c(-c3ccc4ncn5c6cccc(F)c6cc5c4n3)cc12` [Example 7], the IC50 in the assay on HCV replicon genotype 1a (setting [1]) amounted to 1.49 nM; in the assay on HCV replicon genotype 1b (setting [2]), 3.6 nM.
Turning to `CNC(=O)c1c(C2CC2)oc2cc(N(C)S(C)(=O)=O)c(-c3ccc4ncn5c6cccc(F)c6cc5c4n3)cc12` [Example 8], the IC50 is 5.71 nM in the assay on HCV replicon genotype 1a (setting [1]) and 5.82 nM in the assay with HCV replicon genotype 1b (setting [2]).
`CNC(=O)c1c(-c2ccc(F)cc2F)oc2cc(N(C)S(C)(=O)=O)c(-c3ccc4ncn5c6cccc(F)c6cc5c4n3)cc12` [Example 9, 2-(2,4-difluorophenyl)-5-(11-fluoropyrido[3′,2′:4,5]pyrimido[1,6-a]indol-2-yl)-N-methyl-6-(N-methylmethylsulfonamido)benzofuran-3-carboxamide]: the IC50 was 1.16 nM in the assay on HCV replicon genotype 1a (setting [1]) and 1.99 nM in the assay with HCV replicon genotype 1b (setting [2]).
For `CNC(=O)c1c(-c2ccc(F)cc2)oc2cc(N(C)S(C)(=O)=O)c(-c3ccc4ncn5c6cccc(F)c6cc5c4n3)cc12` [Example 10, 2-(4-fluorophenyl)-5-(11-fluoropyrido[3′,2′:4,5]pyrimido[1,6-a]indol-2-yl)-N-methyl-6-(N-methylmethylsulfonamido)benzofuran-3-carboxamide] the same measures were 2.01 nM and 3.24 nM.
For the compound `CNC(=O)c1c(-n2ccccc2=O)oc2cc(N(C)S(C)(=O)=O)c(-c3ccc4ncn5c6cccc(F)c6cc5c4n3)cc12` [Example 11, 5-(11-fluoropyrido[3′,2′:4,5]pyrimido[1,6-a]indol-2-yl)-N-methyl-6-(N-methylmethylsulfonamido)-2-(2-oxopyridin-1(2H)-yl)benzofuran-3-carboxamide], the results for the IC50 in the assay with HCV replicon genotype 1a (setting [1]) and in the assay on HCV replicon genotype 1b (setting [2]) were 2.03 nM and 2.26 nM, respectively.
As to `CNC(=O)c1c(-n2ccc(C)cc2=O)oc2cc(N(C)S(C)(=O)=O)c(-c3ccc4ncn5c6cccc(F)c6cc5c4n3)cc12` [Example 12], the figures for the IC50 with HCV replicon genotype 1a (setting [1]) and in the assay with HCV replicon genotype 1b (setting [2]) were 2.11 nM and 2.36 nM, respectively.
Turning to `CNC(=O)c1c(-n2cnc(C)n2)oc2cc(N(C)S(C)(=O)=O)c(-c3ccc4ncn5c6cccc(F)c6cc5c4n3)cc12` [Example 13], the IC50 with HCV replicon genotype 1a (setting [1]) was 298 nM; with HCV replicon genotype 1b (setting [2]), 99.5 nM.
On to `CNC(=O)c1c(-c2ccc(F)cc2)oc2nc(N(C)S(C)(=O)=O)c(-c3ccc4ncn5c6cccc(F)c6cc5c4n3)cc12` [Example 14, 2-(4-fluorophenyl)-5-(11-fluoropyrido[3′,2′:4,5]pyrimido[1,6-a]indol-2-yl)-N-methyl-6-(N-methylmethylsulfonamido)furo[2,3-b]pyridine-3-carboxamide], for which the results for the IC50 with HCV replicon genotype 1a (setting [1]) and with HCV replicon genotype 1b (setting [2]) were 1.75 nM and 3.72 nM, respectively.
On to `CNC(=O)c1c2cc(-c3ccc4ncn5c6cccc(F)c6cc5c4n3)c(N(C)S(C)(=O)=O)cc2nn1-c1ccc(F)cc1` [Example 15, 2-(4-fluorophenyl)-5-(11-fluoropyrido[3′,2′:4,5]pyrimido[1,6-a]indol-2-yl)-N-methyl-6-(N-methylmethylsulfonamido)-2H-indazole-3-carboxamide], for which the IC50 amounted to 3.04 nM in the assay on HCV replicon genotype 1a (setting [1]) and 5.27 nM with HCV replicon genotype 1b (setting [2]).
Take `CNC(=O)c1c(-c2ccc(F)cc2)nn2cc(N(C)S(C)(=O)=O)c(-c3ccc4ncn5c6cccc(F)c6cc5c4n3)cc12` [Example 16, 2-(4-fluorophenyl)-5-(11-fluoropyrido[3′,2′:4,5]pyrimido[1,6-a]indol-2-yl)-N-methyl-6-(N-methylmethylsulfonamido)pyrazolo[1,5-a]pyridine-3-carboxamide]: the IC50 came to 0.954 nM in the assay on HCV replicon genotype 1a (setting [1]) and 2.22 nM in the assay on HCV replicon genotype 1b (setting [2]).
`CNC(=O)c1c(-c2ccc(C(F)(F)F)nc2)oc2cc(N(C)S(C)(=O)=O)c(-c3cc4c(cn3)ncn3c5cccc(F)c5cc43)cc12` [Example 17, 5-(11-fluoropyrido[3′,4′:4,5]pyrimido[1,6-a]indol-2-yl)-N-methyl-6-(N-methylmethylsulfonamido)-2-(6-(trifluoromethyl)pyridin-3-yl)benzofuran-3-carboxamide]: the IC50 with HCV replicon genotype 1a (setting [1]) was 1.27 nM; with HCV replicon genotype 1b (setting [2]) it was 1.78 nM.
As to `CNC(=O)c1c(-c2ccc(OC(F)F)nc2)oc2cc(N(C)S(C)(=O)=O)c(-c3cc4c(cn3)ncn3c5cccc(F)c5cc43)cc12` [Example 18], the IC50 in the assay with HCV replicon genotype 1a (setting [1]) worked out at 1.06 nM; with HCV replicon genotype 1b (setting [2]), 1.86 nM.

The values above are taken from US9493461B2, “Tetracyclic heterocycle compounds and methods of use thereof for the treatment of hepatitis C” (priority 2013, dated 2016).
